Assay results taken from PMC6204753, “Non-native autoinducer analogs capable of modulating the SdiA quorum sensing receptor in Salmonella enterica serovar Typhimurium” (Beilstein Journal of Organic Chemistry, 2018).
Values joined by “and” are separate entries in the source; they are usually repeats but may differ in a detail not shown here. Equal entries are not always repeated. “Also recorded” adds a separate entry of the source. Where two headings read alike, the source gives them in different places.

What was measured:
[1] = target: T1, SdiA (Salmonella enterica subsp. enterica serovar Typhimurium, UniProt O66040); set-up: method as in PMID 17085703; details: racemates; cited from earlier work
T1 sequence (O66040 entry or part of it): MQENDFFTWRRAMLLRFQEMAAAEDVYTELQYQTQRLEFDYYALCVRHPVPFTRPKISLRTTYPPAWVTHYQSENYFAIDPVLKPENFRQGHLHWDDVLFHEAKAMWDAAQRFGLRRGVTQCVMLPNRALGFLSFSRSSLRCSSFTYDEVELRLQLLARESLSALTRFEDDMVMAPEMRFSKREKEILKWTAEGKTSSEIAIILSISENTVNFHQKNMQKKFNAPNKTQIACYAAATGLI

[2] = target: T1, SdiA; test: S. Typhimurium-pJNS25 SdiA reporter, agonism (luminescence); assay type: cell-based; details: for Emax: read-out: activation (%); for EC50: agonism dose–response, read-out: EC50
From the text: Biological assays for SdiA activity. Cell-based reporter strains that rely on detecting the transcriptional activity of LuxR-type receptors are commonly used to assess the activity of exogenous ligands. We used the S. Typhimurium-pJNS25 reporter strain constructed by Smith and Ahmer and also used by Janssens et al. to examine SdiA activity. This strain naturally produces SdiA and contains a reporter plasmid with the promoter region for srgE fused to the luxABCDE operon of V. fischeri (see Experimental section for details of all strains and plasmids). SdiA activity is thus reported by the production of luciferase and resulting bioluminescence. We also prepared an SdiA reporter in E. coli (JLD271-pJN105SE-pSC11SE) to examine S. Typhimurium SdiA activity in an alternate background and with a different reporter gene output. […] This reporter construct uses an arabinose inducible promoter to produce S. Typhimurium SdiA and the promoter region for srgE fused to lacZ to report SdiA activity. SdiA activity is then measured using standard β-galactosidase assays. In both reporter strains, signal was normalized to the difference between the positive control (10 μM OOHL) and the negative control (1% DMSO; no compound).
Salmonella SdiA reporter assay. S. Typhimurium-pJNS25 was grown 16–18 h overnight in LB, diluted 1:100 in fresh LB medium, and then incubated for 6 h at 37 °C with shaking at 200 rpm in the presence of compounds (1% DMSO). […] All compounds were screened at 100 μM and 1 μM in triplicate in agonism and antagonism assays. […] Dose–response analyses were performed by preparing dilutions of compounds in DMSO and testing each concentration in the agonism or antagonism assays. Competition dose–response assays (data in Figure 5) were performed in the same manner as the antagonism assays, except instead of OOHL being added to the subculture, the antagonist being tested was added. Non-linear regression curve fits were generated using GraphPad Prism software (version 6) using variable slope (four parameter) dose–response analysis.

[3] = target: T1, SdiA; test: S. Typhimurium-pJNS25 SdiA reporter, competitive antagonism against 10 nM L-OOHL; assay type: cell-based; details: for inhibition at 1 µM: 1 μM compound, read-out: Antagonism 1 μM Inhibition (%); for inhibition at 1 µM / inhibition at 100 µM: average ± STD, change in activity from 10 nM 2 (OOHL); for inhibition at 100 µM: 100 μM compound, read-out: Antagonism 100 μM Inhibition (%); for Emax: 100% minus lowest % activity in presence of 10 nM L-OOHL (2)
Procedure, shortened: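 S. Typhimurium-pJNS25 (native SdiA, srgE promoter–luxCDABE) subcultured 1:100 in LB and incubated 6 h at 37 °C, 200 rpm, with compound (1% DMSO); antagonism run against 10 nM L-OOHL. Luminescence normalised between 10 μM OOHL and 1% DMSO controls; triplicates; four-parameter dose–response fits.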

[4] = target: T1, SdiA; test: Competition dose–response of OOHL (2) against antagonists in the S. Typhimurium SdiA reporter; assay type: cell-based; details: for inhibition profile in competition assay (in words): against OOHL (2)
Method: We also submitted compounds 11, R8, and F45 to competition-type assays in the S. Typhimurium SdiA reporter to further characterize their activity profiles. […] The results are shown in Figure 5 (EC50 and maximal activity values listed in Supporting Information File 3).
Salmonella SdiA reporter assay. S. Typhimurium-pJNS25 was grown 16–18 h overnight in LB, diluted 1:100 in fresh LB medium, and then incubated for 6 h at 37 °C with shaking at 200 rpm in the presence of compounds (1% DMSO). For antagonism assays, OOHL (2) at its EC90 (10 nM, 0.1% DMSO) was added to the subculture immediately prior to adding the compound for testing. All compounds were screened at 100 μM and 1 μM in triplicate in agonism and antagonism assays. Raw luminescence values were divided by the OD600 and then normalized to the controls; negative (DMSO) and positive (10 μM OOHL) control samples were included in every assay plate and used to normalize assay results, setting the positive control to 100% and the negative control to 0%. Luminescence was measured using a Biotek Synergy 2 plate reader and Gen 5 software (version 1.05). Dose–response analyses were performed by preparing dilutions of compounds in DMSO and testing each concentration in the agonism or antagonism assays. Competition dose–response assays (data in Figure 5) were performed in the same manner as the antagonism assays, except instead of OOHL being added to the subculture, the antagonist being tested was added. Non-linear regression curve fits were generated using GraphPad Prism software (version 6) using variable slope (four parameter) dose–response analysis.

[5] = target: S. Typhimurium SdiA (Salmonella enterica subsp. enterica serovar Typhimurium, UniProt O66040); test: E. coli JLD271-pJN105SE-pSC11SE SdiA reporter, antagonism (β-galactosidase); assay type: cell-based; details: for inhibition (%): E. coli reporter, against OOHL at its EC50 (1.5 nM), NA = not active
Chain of S. Typhimurium SdiA (O66040 entry or part of it): as above
From the text: Biological assays for SdiA activity. Cell-based reporter strains that rely on detecting the transcriptional activity of LuxR-type receptors are commonly used to assess the activity of exogenous ligands. We used the S. Typhimurium-pJNS25 reporter strain constructed by Smith and Ahmer and also used by Janssens et al. to examine SdiA activity. This strain naturally produces SdiA and contains a reporter plasmid with the promoter region for srgE fused to the luxABCDE operon of V. fischeri (see Experimental section for details of all strains and plasmids). SdiA activity is thus reported by the production of luciferase and resulting bioluminescence. We also prepared an SdiA reporter in E. coli (JLD271-pJN105SE-pSC11SE) to examine S. Typhimurium SdiA activity in an alternate background and with a different reporter gene output. E. coli JLD271 is the sdiA mutant of K-12 E. coli. This reporter construct uses an arabinose inducible promoter to produce S. Typhimurium SdiA and the promoter region for srgE fused to lacZ to report SdiA activity. SdiA activity is then measured using standard β-galactosidase assays. In both reporter strains, signal was normalized to the difference between the positive control (10 μM OOHL) and the negative control (1% DMSO; no compound).
E. coli SdiA reporter assay. The β-galactosidase assay using the E. coli SdiA reporter was performed as reported previously, with minor modifications. The reporter strain was grown 16–18 h overnight in LB, diluted 1:10 in fresh LB medium, and incubated at 37 °C with shaking at 200 rpm until it reached an OD600 of 0.25. Expression of SdiA was induced by the addition of 4 mg/mL arabinose, and the culture was incubated in the presence of compounds (1% DMSO) for 4 h at 37 °C with shaking at 200 rpm. […] A 50 μL aliquot of culture from each well was lysed in 200 μL of Z-buffer and 8 μL of chloroform, and a 100 μL aliquot of this lysate was incubated with 25 μL of 4 mg/mL ONPG for 20 min at 30 °C before reading absorption at 420 nm and 550 nm using a Biotek Synergy 2 plate reader. Non-linear regression curve fits were generated using GraphPad Prism software (version 6) using variable slope (four parameter) dose–response analysis.

[6] = maximal activation of the antagonists (partial agonism), Table 3
[7] = maximal inhibition, read-out: inhibition (%)
[8] = maximal activity (efficacy) from agonism dose–response, 10 μM OOHL = 100%, DMSO = 0%

Compound: CCCCCC(=O)CC(=O)NC1CCOC1=O (racemic) [DL-OOHL, N-(3-oxooctanoyl) DL-homoserine lactone]
- EC50 [1]: 3 nM

Compound: O=C(CCCCCCCCCN=C=S)CC(=O)N[C@H]1CCOC1=O [compound 11, reference compound]
- Emax [2, 6]: -33%
- inhibition at 1 µM [3]: 64 ± 6%
- inhibition at 100 µM [3]: 128 ± 1%
- IC50 ([3]; against 10 nM L-OOHL): 318 nM
- IC50 ([3]; against 10 nM L-OOHL (EC90)): 320 nM
- inhibition profile in competition assay (in words) [4]: both competitive and non-competitive inhibition
- EC50 ([4]; antagonist at 0.1 μM): 72.3 nM
- EC50 ([4]; antagonist at 1 μM): 220 nM
- EC50 ([4]; antagonist at 10 μM): 1310 nM
- EC50 ([4]; antagonist at 100 μM): 4670 nM
- IC50 [5]: 380 nM
- inhibition at 0.0015 µM [5]: 130%
- inhibition (%) [5]: fully inhibit SdiA activity

Compound: CCCCCCCCCC(=O)NC1CCOC1=O (racemic) [DL-DHL (C10)]
- EC50 [1]: 1000 nM

Compound: CCCCCCCCCCCOc1ccc(C(=O)N[C@H]2CCOC2=O)cc1 [R8]
- Emax [2, 6]: 24%
- inhibition at 1 µM [3]: 18 ± 5%
- inhibition at 100 µM [3]: 67 ± 5%
- IC50 ([3]; against 10 nM L-OOHL (EC90)): 44000 nM and 44200 nM
- Emax [3, 7]: > 100%
- inhibition profile in competition assay (in words) [4]: competitive SdiA inhibition
- EC50 ([4]; antagonist at 0.1 μM): 1.57 nM
- EC50 ([4]; antagonist at 1 μM): 1.51 nM
- EC50 ([4]; antagonist at 10 μM): 2.52 nM
- EC50 ([4]; antagonist at 100 μM): 10.6 nM
- inhibition at 0.0015 µM [5]: 106%
- inhibition (%) [5]: fully inhibit SdiA activity

Compound: CCOC(=O)CNC(=O)Cc1cccc(I)c1 [F45]
- Emax [2, 6]: 26%
- inhibition at 1 µM [3]: 8 ± 10%
- inhibition at 100 µM [3]: 92 ± 2%
- IC50 ([3]; against 10 nM L-OOHL (EC90)): 28500 nM
- Emax [3, 7]: 87%
- inhibition profile in competition assay (in words) [4]: non-competitive inhibition profile
- EC50 ([4]; antagonist at 0.1 μM): 1.77 nM
- EC50 ([4]; antagonist at 1 μM): 1.33 nM
- EC50 ([4]; antagonist at 10 μM): 4.11 nM
- inhibition (%) [5]: failed to display antagonistic activity

Compound: CCCCCC(=O)CC(=O)NC1CCSC1=O (racemic) [DL-3-oxo-C8 thiolactone]
- EC50 [1]: 1 nM

Compound: CCCCCCCC(=O)NC1CCOC1=O (racemic) [DL-OHL (C8)]
- EC50 [1]: 7 nM

Compound: O=C(CCCOc1cccc(Br)c1)N[C@H]1CCSC1=O [compound 16, reference compound]
- activity in the SdiA reporter assay (in words) ([2]; S. Typhimurium reporter): multimodal, or non-monotonic
- Emax [2]: 48%
- inhibition at 1 µM [3]: 8 ± 14%
- inhibition at 100 µM [3]: 84 ± 6%
- IC50 ([3]; against 10 nM L-OOHL (EC90)): 45000 nM
- Emax ([3]; read-out: inhibition (%), maximal inhibition): 89%
- inhibition (%) ([5]; 0.0015 µM): failed to display antagonistic activity; also recorded: did not display any activity

Compound: Cc1cccc(CC(=O)N[C@H]2CCOC2=O)c1 [E1]
- EC50 [2]: 66.4 nM
- Emax [2, 8]: 99%
- inhibition at 1 µM [3]: -6 ± 7%
- inhibition at 100 µM [3]: -14 ± 13%

Compound: Cc1ccc(OCC(=O)N[C@H]2CCOC2=O)cc1 [E15]
- EC50 [2]: 33 nM
- Emax [2, 8]: 98%
- inhibition at 1 µM [3]: -3 ± 5%
- inhibition at 100 µM [3]: -17 ± 7%

Compound: O=C(CCC1CCCCC1)N[C@H]1CCOC1=O [B11]
- EC50 [2]: 50.1 nM
- Emax [2, 8]: 93%
- inhibition at 1 µM [3]: 6 ± 5%
- inhibition at 100 µM [3]: 8 ± 14%
